Laboratory results: ChEMBL document CHEMBL1201862, “PubChem BioAssay data set” (2004)
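These data come from cells grown in 96-well plates and exposed to compound for 48 hours at five concentrations. GI50: concentration for 50% inhibition of growth.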 Activity calls are given as the source filed them. No stated cut-off is given here; in the data, active = GI50 up to about 1.1 µM and inactive = higher.

What was measured:
Test in all cases: growth of human tumour cells (NCI), 48 h
[1] = system: Hs-578T
[2] = system: IGROV-1
[3] = system: OVCAR-4
[4] = system: TK-10
[5] = system: SNB-75
[6] = system: NCI-H522
[7] = system: MDA-MB-231
[8] = system: NCI/ADR-RES
[9] = system: MCF7
[10] = system: NCI-H460
[11] = system: SNB-19
[12] = system: UO-31
[13] = system: RPMI-8226
[14] = system: OVCAR-5
[15] = system: SR
[16] = system: A549
[17] = system: HCT-116
[18] = system: EKVX
[19] = system: SK-MEL-28
[20] = system: SK-MEL-2

| SMILES | GI50 [1] | GI50 [2] | GI50 [3] | GI50 [4] | GI50 [5] | GI50 [6] | GI50 [7] | GI50 [8] | GI50 [9] | GI50 [10] | GI50 [11] | GI50 [12] | GI50 [13] | GI50 [14] | GI50 [15] | GI50 [16] | GI50 [17] | GI50 [18] | GI50 [19] | GI50 [20] |
| --- | --- | --- | --- | --- | --- | --- | --- | --- | --- | --- | --- | --- | --- | --- | --- | --- | --- | --- | --- | --- |
| CCCCCc1c(Cl)nc(Cl)nc1Cl | 43.3 µM (inactive) | 7.05 µM (inactive) | 16.1 µM (inactive) | 12.1 µM (inactive) | 0.589 µM (active) | 0.625 µM (active) | 5.69 µM (inactive) | 12.1 µM (inactive) | 10.2 µM (inactive) | 19.5 µM (inactive) | 15.7 µM (inactive) | 18.5 µM (inactive) | 3.03 µM (inactive) | 12.7 µM (inactive) | 0.157 µM (active) | 39.7 µM (inactive) | 3.82 µM (inactive) | 22.5 µM (inactive) | 16.5 µM (inactive) |  |
| O=S1(=O)c2cnccc2N=C(NCc2cccc3ccccc23)N1c1ccccc1 | > 73.3 µM (inactive) | > 61.5 µM (inactive) | > 91.2 µM (inactive) | 64.9 µM (inactive) | > 100 µM (inactive) | 30.6 µM (inactive) | > 43 µM (inactive) | 97.5 µM (inactive) | 36.6 µM (inactive) | 60.8 µM (inactive) | > 100 µM (inactive) | > 56.5 µM (inactive) | 13.6 µM (inactive) | > 100 µM (inactive) | > 100 µM (inactive) | > 57.7 µM (inactive) | 9.35 µM (inactive) | 36.4 µM (inactive) | > 100 µM (inactive) |  |
| Cc1ccc(C2=Nn3c(nc4sc5c(c4c3=O)CCCC5)SC2)cc1 | 35.7 µM (inactive) | > 100 µM (inactive) | > 100 µM (inactive) | > 100 µM (inactive) | 96.4 µM (inactive) | > 100 µM (inactive) | > 100 µM (inactive) | > 100 µM (inactive) | > 100 µM (inactive) | > 100 µM (inactive) |  | > 100 µM (inactive) | > 100 µM (inactive) | > 100 µM (inactive) | > 100 µM (inactive) | > 100 µM (inactive) | > 100 µM (inactive) | > 100 µM (inactive) | > 100 µM (inactive) |  |
| Cc1nc2sc3ccccc3n2c(=O)c1/N=N/c1ccc(Br)cc1 | 67.5 µM (inactive) | > 100 µM (inactive) | 71.3 µM (inactive) | > 100 µM (inactive) | > 100 µM (inactive) | 38.5 µM (inactive) | 60.1 µM (inactive) | > 100 µM (inactive) | 81.3 µM (inactive) | > 100 µM (inactive) | > 100 µM (inactive) |  | 71.3 µM (inactive) | > 100 µM (inactive) | 82.6 µM (inactive) | > 100 µM (inactive) | > 100 µM (inactive) | 57.1 µM (inactive) | > 100 µM (inactive) | 81.5 µM (inactive) |
| CC1=NN(C(=O)CSc2nnc(SCC(=O)N3N=C(C)CC3(O)c3ccccc3)s2)C(O)(c2ccccc2)C1 (configuration not stated) | 36.3 µM (inactive) | 25.1 µM (inactive) | 32.9 µM (inactive) | 54.3 µM (inactive) |  | 29.6 µM (inactive) | 95.5 µM (inactive) | 27.9 µM (inactive) | 35.1 µM (inactive) | 27.6 µM (inactive) | 60.4 µM (inactive) | 22.3 µM (inactive) | 15.5 µM (inactive) | 82.4 µM (inactive) | 23.3 µM (inactive) | 48.4 µM (inactive) | 30.9 µM (inactive) | 27 µM (inactive) | > 100 µM (inactive) | 29.2 µM (inactive) |
| Cc1c2n(c3ccccc13)S(=O)(=O)c1ccccc1-2 | 18.7 µM (inactive) | 25.3 µM (inactive) | 17.2 µM (inactive) | 25.6 µM (inactive) |  | 34.2 µM (inactive) | 17.8 µM (inactive) | 28.1 µM (inactive) | 28.9 µM (inactive) | 30.5 µM (inactive) | 19.8 µM (inactive) | 18.4 µM (inactive) | > 100 µM (inactive) | 88.3 µM (inactive) | > 100 µM (inactive) | 23.4 µM (inactive) | 21.2 µM (inactive) | 6.37 µM (inactive) | > 100 µM (inactive) |  |
| Clc1ccc(CN2CCCN(Cc3ccc(Cl)cc3)C2c2cc3ccccc3c3ccccc23)cc1 | 24.4 µM (inactive) | > 100 µM (inactive) | 55.6 µM (inactive) | 78.5 µM (inactive) | 22.4 µM (inactive) | 18.9 µM (inactive) | 25.4 µM (inactive) | 65.8 µM (inactive) | 37.2 µM (inactive) |  | > 100 µM (inactive) | 88.1 µM (inactive) | 45.1 µM (inactive) | 36.9 µM (inactive) | 3.21 µM (inactive) | > 100 µM (inactive) | 44.8 µM (inactive) | 39.1 µM (inactive) | 22.8 µM (inactive) | 25.5 µM (inactive) |
| CCOC(=O)C12C(=O)CCN1CCc1ccccc1C2C (configuration not stated) | > 100 µM (inactive) | > 100 µM (inactive) | > 100 µM (inactive) | > 100 µM (inactive) |  | > 100 µM (inactive) | > 100 µM (inactive) | > 100 µM (inactive) | > 100 µM (inactive) |  | > 100 µM (inactive) | > 100 µM (inactive) | > 100 µM (inactive) | > 100 µM (inactive) | > 100 µM (inactive) | > 100 µM (inactive) | > 100 µM (inactive) | > 100 µM (inactive) | > 100 µM (inactive) | > 100 µM (inactive) |
| CCOC(=O)C(NC(=O)CC)(Nc1ccc(S(=O)(=O)Nc2ncccn2)cc1)C(F)(F)F (configuration not stated) | > 100 µM (inactive) | > 100 µM (inactive) | > 100 µM (inactive) |  | > 100 µM (inactive) | > 100 µM (inactive) | > 100 µM (inactive) | > 100 µM (inactive) | > 100 µM (inactive) | > 100 µM (inactive) | > 100 µM (inactive) | > 100 µM (inactive) | > 100 µM (inactive) | > 100 µM (inactive) | > 100 µM (inactive) | > 100 µM (inactive) | > 100 µM (inactive) | > 100 µM (inactive) | > 100 µM (inactive) |  |
| O=c1cc(NNc2ccccc2F)[nH]c(=O)[nH]1 | 21.9 µM (inactive) | 16.7 µM (inactive) | 17.7 µM (inactive) | 14.4 µM (inactive) | 25.9 µM (inactive) | 16.2 µM (inactive) | 16.3 µM (inactive) | 16.6 µM (inactive) | 6.61 µM (inactive) | 0.0667 µM (active) | > 100 µM (inactive) | 12.2 µM (inactive) | 17.8 µM (inactive) | 19.5 µM (inactive) | 1.35 µM (inactive) | 55 µM (inactive) | 16.9 µM (inactive) |  | 20.5 µM (inactive) | 16.7 µM (inactive) |
| CC12Cc3cc4c(cc3C1(c1ccc([N+](=O)[O-])cc1)OCCO2)OCO4 (configuration not stated) | 25.5 µM (inactive) | 23.1 µM (inactive) | > 100 µM (inactive) | 37.8 µM (inactive) |  | 91 µM (inactive) | 14.9 µM (inactive) | 95.5 µM (inactive) | 76.7 µM (inactive) | 70.3 µM (inactive) | 28.6 µM (inactive) | > 100 µM (inactive) | > 100 µM (inactive) | > 100 µM (inactive) | > 100 µM (inactive) | > 100 µM (inactive) | 65.3 µM (inactive) | 37.2 µM (inactive) | > 100 µM (inactive) | 32.2 µM (inactive) |
| COc1ccc(-c2oc3c(OC)c(OC)c(OC)c(OC)c3c(=O)c2OC)cc1OC [3,5,6,7,8,3',4'-HEPTAMETHOXYFLAVONE] | 20.9 µM (inactive) | 30.3 µM (inactive) | 47.2 µM (inactive) | 61 µM (inactive) |  | 19.4 µM (inactive) | 59.7 µM (inactive) | 20.3 µM (inactive) | 21.3 µM (inactive) | 19.8 µM (inactive) | > 100 µM (inactive) | 23.6 µM (inactive) | 12.4 µM (inactive) | > 100 µM (inactive) | 19.1 µM (inactive) | 70.6 µM (inactive) | 47.4 µM (inactive) | 55.7 µM (inactive) | 66.7 µM (inactive) | 29.6 µM (inactive) |
| Cc1ncc(-c2nnnn2-c2ccccc2)c(C(=O)O)n1 | > 100 µM (inactive) | > 100 µM (inactive) |  | > 100 µM (inactive) | > 100 µM (inactive) | > 100 µM (inactive) | > 100 µM (inactive) | > 100 µM (inactive) | > 100 µM (inactive) | > 100 µM (inactive) | > 100 µM (inactive) | > 100 µM (inactive) | > 100 µM (inactive) | > 100 µM (inactive) | > 100 µM (inactive) | > 100 µM (inactive) | > 100 µM (inactive) | > 100 µM (inactive) | > 100 µM (inactive) | 33.3 µM (inactive) |
| Cc1cc2c(c(/C=N/Cc3ccccc3)c1)OC1(C=C2)Oc2ccccc2C(=O)N1C (configuration not stated) | 18.3 µM (inactive) | 22 µM (inactive) | 29.2 µM (inactive) | 26 µM (inactive) | 16.4 µM (inactive) |  | 27.5 µM (inactive) | 20.2 µM (inactive) | 28.9 µM (inactive) | 25.1 µM (inactive) | 31.6 µM (inactive) | 14 µM (inactive) | 12.1 µM (inactive) | 21.4 µM (inactive) | 3.54 µM (inactive) | 29.5 µM (inactive) | 21 µM (inactive) | 15.3 µM (inactive) | 29.8 µM (inactive) | 24.9 µM (inactive) |
